As usually defined, the IC50 is the concentration that inhibits the measured activity by half. As a reminder, the AC50 is the concentration at which the activity in the assay is half-maximal.

The text below walks through data of patent US20250326748A1, “COMPOUNDS AND METHODS FOR MODULATING SPLICING” (REMIX THERAPEUTICS INC., priority 2022, published 2025).

Molecules are shown by their SMILES. Where a name gives a salt, the structure may show the parent alone. Read-outs that look alike come from different tables or passages of the source.

Common to all, as to assay type: cell-based, human
For one assay, the system named is HTT mRNA. The experiment in a line: Splicing RT-qPCR assay, HTT canonical (CJ) and alternative (AJ) junction mRNA. The settings on record: Homo sapiens; for IC50: canonical junction mRNA; for AC50: alternative junction mRNA, read-out: HTT AJ (AC50, increase in AJ mRNA). In a few lines:
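Cmpd 24 h, 37 °C/5% CO2; 11-pt 3x serial dilution from 10 uM final; DMSO max 0.25%. Cells: A673 (DMEM/10% FBS, pre-adhered 24 h) or K562 (IMDM/10% FBS). Lyse, DNase I, then 1-step RT-qPCR for CJ and AJ; housekeeping-normalized.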
(In general: Quantitative PCR measures a nucleic acid by following its amplification.)

In the next assay the test system is Target C mRNA. The experiment in a line: Splicing RT-qPCR panel, Target C canonical junction (CJ) mRNA. The settings on record: Homo sapiens, read-out: Target C CJ (decrease in CJ mRNA levels, IC50). In a few lines: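 A673 cells (DMEM, 10% FBS) or K562 cells (IMDM, 10% FBS) treated 24 h at 37 °C with an 11-point 3-fold dilution, top 10 uM, DMSO ≤0.25%. Canonical-junction mRNA quantified in lysates by RT-qPCR, normalised to GAPDH, GUSB or PPIA and to DMSO (2^−ΔΔCt), then converted to % response.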

Another assay relates to Target C. Description: HiBiT protein abundance assay, Target C (K562 HiBiT knock-in). The settings on record: HiBiT knock-in cells, 24 hours. The procedure, abridged:
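K562 HiBiT knock-in cells (10000/well) in IMDM + 1% FBS were treated for 24 h at 37° C. with a 10-point 3-fold dilution series (top 10 μM final), with DMSO ≤0.25%. Unmodified K562 served as baseline. HiBiT lytic luminescence was normalized to controls, and IC50 was interpolated at 50% from a four-parameter fit.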

Setting [1] is: 24 h, RT-qPCR, A673 or K562 cells, 24 hours treatment, read-out: HTT CJ (IC50, decrease in CJ mRNA).
Setting [2] is: qPCR panel, read-out: HTT CJ (decrease in CJ mRNA levels, IC50).
The mark [3] stands for this setting: RT-qPCR, A673 or K562 cells, 24 hours treatment.

Turning to `Cc1c(O)c(-c2cc(-c3ccccn3)c3cc(N4C[C@@H](C)N[C@@H](C)C4)cnc3n2)cc2cn(C)nc12` [Compound 217, 5-{6-[(3R,5S)-3,5-dimethylpiperazin-1-yl]-4-(pyridin-2-yl)-1,8-naphthyridin-2-yl}-2,7-dimethylindazol-6-ol], the IC50 was greater than 10 µM with HTT mRNA (setting [1]), greater than 10 µM in the assay on HTT mRNA (setting [2]), greater than 10 µM in the assay with Target C mRNA and 1 to 10 µM with Target C. Besides, the AC50 in the assay with HTT mRNA (setting [3]) is greater than 10 µM.
As to `COc1nc(-c2cc3cn(C)nc3c(F)c2O)nc2ncc(N3C[C@@H](C)N[C@@H](C)C3)cc12` [Compound 218], the IC50 is less than 0.1 µM with HTT mRNA (setting [1]), less than 0.1 µM in the assay on HTT mRNA (setting [2]), 0.1 to 1 µM with Target C mRNA and 0.1 to 1 µM with Target C. The AC50 in the assay with HTT mRNA (setting [3]) fell in the range of 0.1 to 1 µM.
For the compound `COc1nc(-c2cc3cn(C)nc3c(F)c2O)nc2ncc(N3CCC(N(C)C)CC3)cc12` [Compound 219, 5-{6-[4-(dimethylamino)piperidin-1-yl]-4-methoxypyrido[2,3-d]pyrimidin-2-yl}-7-fluoro-2-methylindazol-6-ol], the IC50 with HTT mRNA (setting [1]) is less than 0.1 µM; in the assay on HTT mRNA (setting [2]) it was less than 0.1 µM; in the assay on Target C mRNA, 0.1 to 1 µM; with Target C, 0.1 to 1 µM. Also, the AC50 in the assay with HTT mRNA (setting [3]) fell in the range of 0.1 to 1 µM.
Regarding `CN(C)[C@@H]1CCN(c2cnc3nc(-c4cc5cn(C)nc5c(F)c4O)cc(Cl)c3c2)C1` [Compound 220], the IC50 is less than 0.1 µM in the assay with HTT mRNA (setting [1]), less than 0.1 µM in the assay with HTT mRNA (setting [2]), 0.1 to 1 µM with Target C mRNA and 0.1 to 1 µM in the assay on Target C. Moreover, in the assay with HTT mRNA (setting [3]), the AC50 lay within 0.1 to 1 µM.
Consider `CN(C)[C@H]1CCN(c2cnc3nc(-c4cc5cn(C)nc5c(F)c4O)cc(Cl)c3c2)C1` [Compound 221], for which the IC50 in the assay on HTT mRNA (setting [1]) is less than 0.1 µM; with HTT mRNA (setting [2]), less than 0.1 µM; in the assay on Target C mRNA, 0.1 to 1 µM; with Target C it was 0.1 to 1 µM. In addition, the AC50 in the assay on HTT mRNA (setting [3]) fell in the range of 0.1 to 1 µM.
Regarding `C[C@H]1CN(c2cnc3nc(-c4cc5cn(C)nc5cc4O)cc(Cl)c3c2)C[C@H](C)N1` [Compound 242], the IC50 lay in the range of 0.1 to 1 µM in the assay on HTT mRNA (setting [1]), 0.1 to 1 µM in the assay on HTT mRNA (setting [2]), 1 to 10 µM in the assay on Target C mRNA and 0.1 to 1 µM in the assay on Target C. Besides, in the assay on HTT mRNA (setting [3]), the AC50 was in the range of 0.1 to 1 µM.
For the compound `C[C@@H]1CN(c2cnc3nc(-c4cc5cn(C)nc5cc4O)cc(Cl)c3c2)C[C@@H](C)N1` [Compound 243, 5-{4-chloro-6-[(3R,5R)-3,5-dimethylpiperazin-1-yl]-1,8-naphthyridin-2-yl}-2-methylindazol-6-ol hydrochloride], the IC50 in the assay on HTT mRNA (setting [1]), with HTT mRNA (setting [2]), with Target C mRNA and in the assay on Target C was 1 to 10 µM throughout. For the same compound, the AC50 in the assay with HTT mRNA (setting [3]) was in the range of 1 to 10 µM.
Take `C[C@H]1CN(c2cnc3nc(-c4cc(F)c5nn(C)cc5c4)cc(Cl)c3c2)C[C@H](C)N1` [Compound 250]: the IC50 in the assay on HTT mRNA (setting [1]), in the assay with HTT mRNA (setting [2]), with Target C mRNA and with Target C was 0.1 to 1 µM in each case. Further, the AC50 in the assay on HTT mRNA (setting [3]) was 0.1 to 1 µM.
For `C[C@@H]1CN(c2cnc3nc(-c4cc(F)c5nn(C)cc5c4)cc(Cl)c3c2)C[C@@H](C)N1` [Compound 251], the IC50 in the assay with HTT mRNA (setting [1]) is 1 to 10 µM; in the assay on HTT mRNA (setting [2]) it was 1 to 10 µM; in the assay with Target C mRNA it was greater than 10 µM; in the assay on Target C, 1 to 10 µM. Also, the AC50 in the assay on HTT mRNA (setting [3]) lay within 1 to 10 µM.
For `Cc1c(O)c(-c2cc(-c3nnc[nH]3)c3cc(N4C[C@@H](C)N[C@@H](C)C4)cnc3n2)cc2cn(C)nc12` [Compound 261, 5-{6-[(3R,5S)-3,5-dimethylpiperazin-1-yl]-4-(4H-1,2,4-triazol-3-yl)-1,8-naphthyridin-2-yl}-2,7-dimethylindazol-6-ol], the IC50 with HTT mRNA (setting [1]) was greater than 10 µM; in the assay on HTT mRNA (setting [2]), less than 0.1 µM; with Target C mRNA, 0.1 to 1 µM; in the assay with Target C, 1 to 10 µM. Further, in the assay on HTT mRNA (setting [3]), the AC50 is greater than 10 µM.
Consider `C[C@@H]1CN(c2cnc3nc(-c4cc5cn(C)nc5c(F)c4O)cc(C#N)c3c2)C[C@H](C)N1` [Compound 266, 6-[(3R,5S)-3,5-dimethylpiperazin-1-yl]-2-(7-fluoro-6-hydroxy-2-methylindazol-5-yl)-1,8-naphthyridine-4-carbonitrile hydrochloride], for which the IC50 in the assay on HTT mRNA (setting [1]) fell in the range of 0.1 to 1 µM; with HTT mRNA (setting [2]) it was 0.1 to 1 µM; in the assay with Target C mRNA it was 1 to 10 µM; in the assay with Target C it was 1 to 10 µM. For the same compound, the AC50 in the assay with HTT mRNA (setting [3]) is 1 to 10 µM.
As to `CN[C@@H]1CCN(c2cnc3nc(-c4cc5cn(C)nc5c(F)c4O)cc(Cl)c3c2)C1` [Compound 271], the IC50 in the assay on HTT mRNA (setting [1]), in the assay with HTT mRNA (setting [2]), in the assay on Target C mRNA and in the assay on Target C was less than 0.1 µM in each case. Moreover, in the assay with HTT mRNA (setting [3]), the AC50 is less than 0.1 µM.
